Positions count from the first letter of the chain named. Read-outs that look alike come from different tables or passages of the source. Square brackets hold non-standard residues; d marks the D form. Ends that are not written are not given here.
Tests used:
J774 cells = test: HDL-SAA binding/uptake by J774 cells (western blot); format: cell-based, murine; details: 50 μM
IAPP = biological target: T1, IAPP (Homo sapiens, UniProt P10997); details: cited from earlier work
T1 construct: human islet amyloid polypeptide, a major component of amyloid deposits found in the pancreas
T1 sequence (P10997 34-70 limits assumed): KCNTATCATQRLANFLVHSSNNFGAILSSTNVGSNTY

J774A.1 cells [1] = details: for Effect on amyloidogenesis / amyloid deposition in cell culture (in words): increasing concentrations of test agent
Experimental: AA-amyloid deposits were detected by histochemical staining with Alcian blue and direct quantitation by Th-T fluorescence.
The ability of a number of potential anti-amyloid compounds to modulate amyloid formation in this cell culture system was tested. To determine the effects of these potential anti-amyloid compounds, cell culture amyloidogenesis was induced in the presence of increasing concentrations of the test agents. Amyloid loads were quantified by Th-T fluorescence.
The murine monocytic cell line J774A.1 (American Type Culture Collection, Manassas, Va.) was cultured in RPMI (Sigma) medium which contained 25 mM HEPES, 15% fetal bovine serum (FBS) and 50 μg/ml penicillin-streptomycin, at 37° C., 5% CO2. The cell stocks were passaged every four days, and the medium replaced every other day. Cells were seeded at a minimal density in 8-well chamber slides (Lab-Tek®, Nalge Nunc International, Naperville, Ill.) in 350 μl medium/well and allowed to reach about 80-90% confluence (3 days), about 2.2×10^5 cells per well. To induce AA-amyloidogenesis, cells were treated for 24 hours with 30 μg of AEF in the culture medium, then the medium was removed and the cells rinsed with fresh medium. To these cells 350 μl of medium was added containing either 0.3 mg/ml HDL-SAA, HDL, 0.05 mg/ml SAA1.1 or SAA2.1, replenished every two days for 7 days. At the end of the treatment period, the cells were either stained with Congo red to visualize the amyloid deposits, or the cells were dissolved in 1% NaOH and assayed for amyloid fibrils by thioflavin-T (Th-T) fluorescence as described by LeVine (Methods Enzymol. 1999 309:274-284).

J774A.1 cells [2] = test: Cell culture amyloidogenesis, amyloid detected by Congo Red (CR) staining; format: cell-based, murine
Experimental: The murine monocytic cell line J774A.1 (American Type Culture Collection, Manassas, Va.) was cultured in RPMI (Sigma) medium which contained 25 mM HEPES, 15% fetal bovine serum (FBS) and 50 μg/ml penicillin-streptomycin, at 37° C., 5% CO2. The cell stocks were passaged every four days, and the medium replaced every other day. Cells were seeded at a minimal density in 8-well chamber slides (Lab-Tek®, Nalge Nunc International, Naperville, Ill.) in 350 μl medium/well and allowed to reach about 80-90% confluence (3 days), about 2.2×10^5 cells per well. […] At the end of the treatment period, the cells were either stained with Congo red to visualize the amyloid deposits, or the cells were dissolved in 1% NaOH and assayed for amyloid fibrils by thioflavin-T (Th-T) fluorescence as described by LeVine (Methods Enzymol. 1999 309:274-284). […]
Congo Red (CR) staining for amyloid was performed on cells that were rinsed with PBS, fixed for 10 minutes in 70% ethanol, and then stained for 45 minutes with Congo red prepared in alkaline 80% ethanol, NaCl saturated solution. […] Quantitation of amyloid was performed by Th-T fluorescence as described by LeVine (Methods Enzymol. 1999 309:274-284). Fluorescence spectra of Th-T were acquired at 25° C. with a Spectra Max Gemini 96-well plate reader. […] Control spectra of Th-T and cell extract alone were determined. […]

Aβ1-40 = Aβ1-40 (Homo sapiens, UniProt P05067); details: 100 μM, cell-free system; cited from earlier work
Aβ1-40, sequence (P05067 672-711): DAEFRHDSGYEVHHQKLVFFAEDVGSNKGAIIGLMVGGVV

Molecule: heparin [reference compound]
- Effect on HDL-SAA binding to J774 cells (J774 cells): prevented HDL-SAA binding to cells

Molecule: FLVHSS [residues 15-20 of human islet amyloid polypeptide]
- Effect on beta-sheet transition and fibril formation of human islet amyloid polypeptide (IAPP): strong enhancers of beta-sheet transition and fibril formation

Molecule: chondroitin sulfate [reference compound]
- Effect on amyloidogenesis / amyloid deposition in cell culture (in words) (J774A.1 cells [1]): unable to affect amyloid deposition at any concentration tested

Molecule: LANFLV [residues 12-17 of human islet amyloid polypeptide]
- Effect on beta-sheet transition and fibril formation of human islet amyloid polypeptide (IAPP): strong enhancers of beta-sheet transition and fibril formation

Molecule: ADQEANRHGRSGKDPNYYRPPGLPAKY ([dA][dD][dQ][dE][dA][dN][dR][dH]G[dR][dS]G[dK][dD][dP][dN][dY][dY][dR][dP][dP]G[dL][dP][dA][dK][dY]) [D-27mer]
- Formation of CR-detectable amyloid (J774A.1 cells [2]; 20 μM, co-incubated with HDL-SAA): prevented the formation of any CR-detectable amyloid

Molecule: polyvinylsulfonate [PVS, reference compound]
- Effect on HDL-SAA binding to J774 cells (J774 cells): prevented HDL-SAA binding to J774 cells
- 100% inhibition of amyloidogenesis (IC100) (J774A.1 cells [1]; Th-T fluorescence): 9 µM
- IC50 (J774A.1 cells [1]; read-out: 50% inhibition of amyloidogenesis (IC50), Th-T fluorescence, test agent present throughout HDL-SAA treatments): 500 nM

Molecule: ADQAANEWGRSGKDPNHFRPAGLPEKY [SEQ ID NO:9]
- Effect on amyloidogenesis / amyloid deposition in cell culture (in words) (J774A.1 cells [1]): equivalent inhibitory activity

Molecule: KLVFF [Aβ peptide (residues 16-20)]
- Effect on Aβ1-40 fibril assembly (Aβ1-40): prevent fibril assembly

Molecule: ADQEANAAGASGKDPNYYRPPGLPAKY (OTHER INFORMATION: Synthetic) [27-mer; R83A/H84A/R86A]
- Effect on amyloidogenesis / amyloid deposition in cell culture (in words) (J774A.1 cells [1]): complete loss of inhibitory activity

Molecule: WRAYTDMKEAGWKDGDKYFHARGNYDAAQRGPG [33-mer]
- Effect on HDL-SAA binding to J774 cells (J774 cells): completely blocked HDL-SAA binding/uptake
- Enhancement of amyloid formation (J774A.1 cells [1]; AEF preincubation not used): greater than 50%
- Enhancement of amyloid formation (J774A.1 cells [1]; cells preincubated with AEF): up to 180%
- Effect on amyloidogenesis / amyloid deposition in cell culture (in words) (J774A.1 cells [1]): increasing amyloid load in culture

Molecule: ADQEANRHGRSGKDPNYYRPPGLPAKY [27-mer]
- Effect on HDL-SAA binding to J774 cells (J774 cells): did not interfere with HDL-SAA binding to cells
- IC50 (J774A.1 cells [1]): 20 nM
- Fold less than the SAA1.1 concentration used to generate AA-amyloid (J774A.1 cells [1]; 70 nM versus 4.2 μM SAA1.1): about 60 fold
- Fold less peptide needed than the IAPP peptides (100 μM) for similar inhibition (J774A.1 cells [1]; 70 nM versus 100 μM): 1400 fold
- IC50 fold lower than that for PVS (J774A.1 cells [1]; 27-mer versus PVS): 25 fold
- Concentration achieving a similar level of inhibition (80 to 85%) of amyloid load (J774A.1 cells [1]; SAA1.1 concentration 4.2 μM): 70 nM

Molecule: ANRHGRSGKNPNYYRPPGLPAKY (ANRHGRSGKNPNYYRPPGLPAKY-NH2) [23-mer basic]
- Inhibition of CR-detectable amyloid (J774A.1 cells [2]; 2 μM): completely inhibit CR-detectable amyloid

Molecule: PLPAQGKPGPDHYARNDSYAKNRYERG (OTHER INFORMATION: Synthetic) [SEQ ID NO:8, reference compound]
- Effect on amyloidogenesis / amyloid deposition in cell culture (in words) (J774A.1 cells [1]): complete loss of inhibitory activity

B1: SAA1.1: purified delipidated murine serum amyloid A isoform 1.1 (protein, UniProt P05366 20-122, looked up)
Serum amyloid A-1 protein: GFFSFVHEAFQGAGDMWRAYTDMKEANWKNSDKYFHARGNYDAAQRGPGGVWAAEKISDGREAFQEFFGRGHEDTIADQEANRHGRSGKDPNYYRPPGLPDKY
- Amyloid produced, % of HDL-SAA (J774A.1 cells [1]; purified delipidated isoform 50 μg/ml with AEF): 9%

B2: SAA2.1: purified delipidated murine serum amyloid A isoform 2.1 (protein, UniProt P05367 20-122, looked up)
Serum amyloid A-2 protein: B1 Serum amyloid A-1 protein with V6I, H7G, N27G, N30D, S31G, G60A, A63S, I76M, D101A
- Amyloid produced from SAA form (in words) (J774A.1 cells [1]; with AEF, CR stain or Th-T fluorescence): no amyloid was detected

— patent US20050267029A1, “Compounds which modulate amyloidogenesis and methods for their identification and use” (priority 2004, published 2005)
